The values below come from patent US11453697B1, “Cyclic di-nucleotide compounds as sting agonists” (Merck Sharp & Dohme Corp., priority 2015, dated 2022).

One assay has as its target full-length WT STING (Homo sapiens (Human), UniProt Q86WV6, H232R). The assay is described as follows: 3H-cGAMP filtration binding assay (WT STING). How it is done: The ability of compounds to bind STING is quantified by their ability to compete with tritiated cGAMP ligand for human STING receptor membrane using a radioactive filter-binding assay.
The basic WT STING filtration assay protocol is as follows:
Tritium levels for each reaction well were then measured using a PerkinElmer TopCount plate reader.
After normalization to controls, the percent activity for each compound concentration was calculated by measuring the amount of remaining radioactivity. The plot of percent activity versus the log of compound concentration was fit with a 4-parameter dose response equation to calculate EC50 values.

Assay [1] relates to IFN-β secretion in THP1 cells. The assay is described as follows: IFN-β secretion in THP1 cell culture (5 h). The assay is classed as cell-based, human. In outline:
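THP1 cells incubated with compound for 5 h at 37 °C, 5% CO2, and secreted IFN-β in supernatant quantified by AlphaLISA. Percent effect normalised to 30 uM cGAMP positive control and 0.3% DMSO. EC50 from 4-parameter fit.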

The target of the next assay is full-length HAQ STING (Homo sapiens (Human), UniProt Q86WV6, G230A/H232R/R293Q/R71H). The assay is described as follows: 3H-cGAMP filtration binding assay (HAQ STING). Conditions: competition with tritiated cGAMP, HAQ STING membrane. In outline: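 Competition binding of compounds against 8 nM [3H]cGAMP working stock on Hi-Five cell membranes overexpressing full-length HAQ STING; compound and membrane preincubated 60 min at RT before ligand addition. Bound radioactivity read by filtration and scintillation counting; percent activity normalized to controls, EC50 from 4-parameter fit.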
Sequence of full-length HAQ STING (Q86WV6 other isoform, or with tags, fused parts or gaps, stated change not applied): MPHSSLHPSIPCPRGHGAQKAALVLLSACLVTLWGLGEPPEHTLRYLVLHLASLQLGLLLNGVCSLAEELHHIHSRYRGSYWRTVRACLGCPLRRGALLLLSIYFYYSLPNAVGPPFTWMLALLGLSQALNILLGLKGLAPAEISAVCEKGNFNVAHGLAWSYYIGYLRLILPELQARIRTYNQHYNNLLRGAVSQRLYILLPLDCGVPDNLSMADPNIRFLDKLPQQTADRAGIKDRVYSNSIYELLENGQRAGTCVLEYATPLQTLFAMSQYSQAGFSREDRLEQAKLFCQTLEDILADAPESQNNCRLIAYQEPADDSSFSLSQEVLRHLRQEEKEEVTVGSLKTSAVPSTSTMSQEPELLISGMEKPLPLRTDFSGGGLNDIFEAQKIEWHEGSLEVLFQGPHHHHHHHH

Where [2] appears, read: IFN-β secretion in THP1 cell culture, 5 h, compound at 30 μM, percent activation relative to 2′3′-cGAMP.
Setting [3] is: read-out: EC50 (nM), 3H-cGAMP filtration binding assay for HAQ STING.

Read-outs that look alike come from different tables or passages of the source. Bounds are passed on as bounds.

Sequence of full-length WT STING (Q86WV6 other isoform, or with tags, fused parts or gaps H232R (already in the parent)): as the sequence (Q86WV6 other isoform, or with tags, fused parts or gaps, stated change not applied) above, with H71R, A230G, Q293R counted along it

As to `Nc1nc2c(ncn2[C@@H]2O[C@@H]3COP(O)(=S)O[C@H]4[C@H](F)[C@H](n5cnc6c(N)ncnc65)O[C@@H]4COP(O)(=S)O[C@@H]2C3(F)F)c(=O)[nH]1` (single isomer, unassigned) [Example 156], the EC50 at full-length WT STING (read-out: EC50 (nM), 3H-cGAMP filtration binding assay for WT STING; competition with tritiated cGAMP, WT STING membrane) was less than 1 nM. For the same compound, the “% Effect at 30 μM relative to 2′3′-cGAMP” value in assay [1] is given as 119%.
Take `Nc1nc2c(ncn2[C@@H]2O[C@@H]3COP(=O)(S)O[C@H]4C[C@H](c5cnc6c(=O)[nH]cnn56)O[C@@H]4COP(=O)(S)O[C@@H]2[C@@H]3F)c(=O)[nH]1` (stereo partly drawn) [Example 336, 7-[(5R,7R,8S,12aR,14R,15aS,16R)-7-(2-amino-6-oxo-1,6-dihydro-9H-purin-9-yl)-16-fluoro-2,10-dioxido-2,10-disulfanyloctahydro-12H-5,8-methanofuro[3,2-l][1,3,6,9,11,2,10]pentaoxadiphosphacyclotetradecin-14-yl]imidazo[2,1-f][1,2,4]triazin-4(3H)-one]: at full-length WT STING (competition with tritiated cGAMP, WT STING membrane; read-out: EC50 (nM), 3H-cGAMP filtration binding assay for WT STING), the EC50 is 422 nM. In assay [1] (setting [2]), the “% Effect at 30 μM relative to 2′3′-cGAMP” value is 85%.
Consider `Nc1cc2c(ncn2[C@@H]2O[C@@H]3COP(=O)(S)O[C@H]4[C@H](F)[C@H](n5ccc6c(N)ncnc65)O[C@@H]4COP(=O)(S)O[C@@H]2[C@@H]3F)c(=O)[nH]1` (single isomer, unassigned) [Example 229], for which the inhibition at 20 µM on full-length WT STING (read-out: % Inh @ 20 uM, 3H-cGAMP filtration binding assay for WT STING) came to 31%.
`Nc1nc2c(ncn2[C@@H]2O[C@@H]3COP(O)(=S)O[C@H]4C[C@H](n5cnc6c(=O)[nH]cnc65)O[C@@H]4COP(O)(=S)O[C@@H]2[C@@H]3F)c(=O)[nH]1` (single isomer, unassigned) [Example 306] displayed an EC50 on full-length HAQ STING (EC50 (nM), 3H-cGAMP filtration binding assay for HAQ STING) of 3.6 nM. In addition, in assay [1], the “% Effect at 30 μM relative to 2′3′-cGAMP” value was determined as 153%.
As for `Nc1ncnc2c1ncn2[C@@H]1O[C@@H]2COP(=O)(O)O[C@@H]3[C@H](O)[C@@H](COP(=O)(O)O[C@H]2[C@H]1O)O[C@H]3n1cnc2c(=O)[nH]ccc21` [Example 58, 1-[(5R,7R,8R,12aR,14R,15R,15aS,16R)-14-(6-amino-9H-purin-9-yl)-2,10,15,16-tetrahydroxy-2,10-dioxidooctahydro-12H-5,8-methanofuro[3,2-l][1,3,6,9,11,2,10]pentaoxadiphosphacyclotetradecin-7-yl]-1,5-dihydro-4H-imidazo[4,5-c]pyridin-4-one], the EC50 on full-length HAQ STING (setting [3]) turned out to be 3.1 nM. In addition, in assay [1] (setting [2]), the “% Effect at 30 μM relative to 2′3′-cGAMP” value worked out at 92%.
For the compound `Nc1nc2c(ncn2[C@@H]2S[C@@H]3COP(=O)(O)O[C@H]4[C@@H](O)[C@H](n5cnc6c(=O)[nH]cnc65)O[C@@H]4COP(=O)(O)O[C@@H]2[C@@H]3O)c(=O)[nH]1` [Example 319, 2-amino-9-[(5R,7R,8R,12aR,14R,15R,15aS,16S)-2,10,15,16-tetrahydroxy-2,10-dioxido-14-(6-oxo-1,6-dihydro-9H-purin-9-yl)octahydro-12H-5,8-methanofuro[3,2-l][1,3,6,9,11,6,2,10]tetraoxathiadiphosphacyclotetradecin-7-yl]-1,9-dihydro-6H-purin-6-one], the EC50 at full-length HAQ STING (setting [3]) came out at 7.3 nM. In addition, the “% Effect at 30 μM relative to 2′3′-cGAMP” value in assay [1] (setting [2]) is 143%.
For `Nc1ncnc2c1ccn2[C@@H]1O[C@@H]2COP(=O)(O)O[C@@H]3[C@H](O)[C@@H](COP(=O)(O)O[C@H]2[C@H]1O)O[C@H]3n1cnc2c(=O)[nH]cnc21` [Example 35, 9-[(5R,7R,8R,12aR,14R,15R,15aS,16R)-14-(4-amino-7H-pyrrolo[2,3-d]pyrimidin-7-yl)-2,10,15,16-tetrahydroxy-2,10-dioxidooctahydro-12H-5,8-methanofuro[3,2-l][1,3,6,9,11,2,10]pentaoxadiphosphacyclotetradecin-7-yl]-1,9-dihydro-6H-purin-6-one], the EC50 at full-length HAQ STING (setting [3]) was determined as 7.9 nM. Further, in assay [1] (setting [2]), the “% Effect at 30 μM relative to 2′3′-cGAMP” value came to 51%.
As for `Nc1nc2c(ncn2[C@@H]2O[C@@H]3COP(=O)(O)O[C@H]4[C@@H](O)[C@H](c5cnc6c(N)ncnn56)O[C@@H]4COP(=O)(O)O[C@@H]2[C@@H]3O)c(=O)[nH]1` [Example 40, 2-amino-9-[(5R,7R,8R,12aR,14S,15S,15aS,16R)-14-(4-aminoimidazo[2,1-f][1,2,4]triazin-7-yl)-2,10,15,16-tetrahydroxy-2,10-dioxidooctahydro-12H-5,8-methanofuro[3,2-l][1,3,6,9,11,2,10]pentaoxadiphosphacyclotetradecin-7-yl]-1,9-dihydro-6H-purin-6-one], the EC50 on full-length HAQ STING (setting [3]) came out at 3.2 nM. For the same compound, the “% Effect at 30 μM relative to 2′3′-cGAMP” value in assay [1] (setting [2]) was 77%.
On to `Nc1ncnc2c1ccn2[C@@H]1O[C@@H]2COP(=O)(O)O[C@@H]3C[C@@H](COP(=O)(O)O[C@H]2[C@H]1O)O[C@H]3n1cnc2c(=O)[nH]cnc21` [Example 67, 9-[(5S,7R,8R,12aR,14R,15R,15aS)-14-(4-amino-7H-pyrrolo[2,3-d]pyrimidin-7-yl)-2,10,15-trihydroxy-2,10-dioxidooctahydro-12H-5,8-methanofuro [3,2-l][1,3,6,9,11,2,10]pentaoxadiphosphacyclotetradecin-7-yl]-1,9-dihydro-6H-purin-6-one], for which, at full-length HAQ STING (setting [3]), the EC50 worked out at 6.4 nM. Moreover, the “% Effect at 30 μM relative to 2′3′-cGAMP” value in assay [1] (setting [2]) came out at 111%.
The like results for `CNc1ncnc2c1ncn2[C@@H]1O[C@@H]2COP(=O)(O)O[C@@H]3[C@H](O)[C@@H](COP(=O)(O)O[C@H]2[C@H]1O)O[C@H]3n1cnc2c(=O)[nH]c(N)nc21` [Example 31, 2-amino-9-{(5R,7R,8R,12aR,14R,15R,15aS,16R)-2,10,15,16-tetrahydroxy-14-[6-(methylamino)-9H-purin-9-yl]-2,10-dioxidooctahydro-12H-5,8-methanofuro [3,2-l][1,3,6,9,11,2,10]pentaoxadiphosphacyclotetradecin-7-yl}-1,9-dihydro-6H-purin-6-one] were, in that order, 94 nM and 100%.
The like results for `Nc1ncnc2c1ncn2[C@@H]1O[C@@H]2COP(=O)(O)O[C@@H]3[C@H](O)[C@@H](COP(=O)(O)O[C@H]2[C@H]1O)O[C@H]3n1ncc2c(=O)[nH]cnc21` [Example 66, 1-[(5R,7R,8R,12aR,14R,15R,15aS,16R)-14-(6-amino-9H-purin-9-yl)-2,10,15,16-tetrahydroxy-2,10-dioxidooctahydro-12H-5,8-methanofuro[3,2-l][1,3,6,9,11,2,10]pentaoxadiphosphacyclotetradecin-7-yl]-1,5-dihydro-4H-pyrazolo[3,4-d]pyrimidin-4-one] were, in that order, 117 nM and 54%.
As for `Nc1nc2c(ncn2[C@@H]2O[C@@H]3CO[P@@](=O)(S)O[C@H]4[C@@H](O)[C@H](n5cnc6c(=O)[nH]cnc65)O[C@@H]4CO[P@@](=O)(S)O[C@@H]2C3)c(=O)[nH]1` [Example 290, 2-amino-9-[(2R,5S,7R,8R,10R,12aR,14R,15R,15aS)-15-hydroxy-2,10-dioxido-14-(6-oxo-1,6-dihydro-9H-purin-9-yl)-2,10-disulfanyloctahydro-12H-5,8-methanofuro[3,2-l][1,3,6,9,11,2,10]pentaoxadiphosphacyclotetradecin-7-yl]-1,9-dihydro-6H-purin-6-one], the EC50 at full-length HAQ STING (setting [3]) amounted to 2.5 nM. Moreover, the “% Effect at 30 μM relative to 2′3′-cGAMP” value in assay [1] (setting [2]) was determined as 90%.
For `Nc1nc2c(ncn2[C@@H]2O[C@@H]3COP(=O)(O)O[C@H]4[C@@H](O)[C@H](n5nnc6c(N)nccc65)O[C@@H]4COP(=O)(O)O[C@@H]2[C@@H]3O)c(=O)[nH]1` [Example 73, 2-amino-9-[(5R,7R,8R,12aR,14R,15R,15aS,16R)-14-(4-amino-1H-[1,2,3]triazolo[4,5-c]pyridin-1-yl)-2,10,15,16-tetrahydroxy-2,10-dioxidooctahydro-12H-5,8-methanofuro[3,2-l][1,3,6,9,11,2,10]pentaoxadiphosphacyclotetradecin-7-yl]-1,9-dihydro-6H-purin-6-one], the EC50 at full-length HAQ STING (setting [3]) came to 834 nM. In assay [1] (setting [2]), the “% Effect at 30 μM relative to 2′3′-cGAMP” value came out at 5%.
With `Nc1nc2c(ncn2[C@@H]2O[C@@H]3COP(=O)(O)O[C@H]4[C@@H](O)[C@H](c5cnn6c(N)ncnc56)O[C@@H]4COP(=O)(O)O[C@@H]2[C@@H]3O)c(=O)[nH]1` [Example 54, 2-amino-9-[(5R,7R,8R,12aR,14S,15S,15aS,16R)-14-(4-aminopyrazolo[1,5-a][1,3,5]triazin-8-yl)-2,10,15,16-tetrahydroxy-2,10-dioxidooctahydro-12H-5,8-methanofuro[3,2-l][1,3,6,9,11,2,10]pentaoxadiphosphacyclotetradecin-7-yl]-1,9-dihydro-6H-purin-6-one], the EC50 at full-length HAQ STING (setting [3]) is less than 1 nM. Also, the “% Effect at 30 μM relative to 2′3′-cGAMP” value in assay [1] was determined as 83%.
